Literature values as cited in US5346895A, “Chromans and thiochromans with heteroarylethynyl substituents at the 7-position having retinoid-like biological activity” (Allergan, Inc., priority 1993, dated 1994).

System: ornithine decarboxylase (ODC), TPA induced ODC activity
Conditions: result in words, retinoic acid, background knowledge

SMILES: CC1=C(/C=C/C(C)=C/C=C/C(C)=C/C(=O)O)C(C)(C)CCC1 [Retinoic acid]
- inhibition of induction of ODC activity by TPA: inhibits this induction of ODC activity by TPA
